From patent publication US20230374015A1, “INHIBITORS OF FIBROBLAST GROWTH FACTOR RECEPTOR KINASES” (Kinnate Biopharma Inc., priority 2020, published 2023)

Target: FGFR2 (Homo sapiens, UniProt P21802)
Assay: FGFR2 Kinase Protocol - Condition 2 (Reaction Biology HotSpot radiometric kinase assay, no preincubation)
Type: biochemical
Details: poly[Glu:Tyr] (4:1) 0.2 mg/ml, ATP 100 microM, 2 hr room temperature
How it was run: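 Radiometric HotSpot format: FGFR2 (wildtype or V564F) with poly[Glu:Tyr] (4:1) at 0.2 mg/ml in HEPES pH 7.5 buffer with 1% DMSO; ATP plus [γ33P]ATP at 100 µM total, added without preincubation. Reactions ran 2 hr at room temperature, then filter-bound. IC50 from 10-dose, 3-fold series versus DMSO control.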

FGFR2, sequence (P21802 22-821): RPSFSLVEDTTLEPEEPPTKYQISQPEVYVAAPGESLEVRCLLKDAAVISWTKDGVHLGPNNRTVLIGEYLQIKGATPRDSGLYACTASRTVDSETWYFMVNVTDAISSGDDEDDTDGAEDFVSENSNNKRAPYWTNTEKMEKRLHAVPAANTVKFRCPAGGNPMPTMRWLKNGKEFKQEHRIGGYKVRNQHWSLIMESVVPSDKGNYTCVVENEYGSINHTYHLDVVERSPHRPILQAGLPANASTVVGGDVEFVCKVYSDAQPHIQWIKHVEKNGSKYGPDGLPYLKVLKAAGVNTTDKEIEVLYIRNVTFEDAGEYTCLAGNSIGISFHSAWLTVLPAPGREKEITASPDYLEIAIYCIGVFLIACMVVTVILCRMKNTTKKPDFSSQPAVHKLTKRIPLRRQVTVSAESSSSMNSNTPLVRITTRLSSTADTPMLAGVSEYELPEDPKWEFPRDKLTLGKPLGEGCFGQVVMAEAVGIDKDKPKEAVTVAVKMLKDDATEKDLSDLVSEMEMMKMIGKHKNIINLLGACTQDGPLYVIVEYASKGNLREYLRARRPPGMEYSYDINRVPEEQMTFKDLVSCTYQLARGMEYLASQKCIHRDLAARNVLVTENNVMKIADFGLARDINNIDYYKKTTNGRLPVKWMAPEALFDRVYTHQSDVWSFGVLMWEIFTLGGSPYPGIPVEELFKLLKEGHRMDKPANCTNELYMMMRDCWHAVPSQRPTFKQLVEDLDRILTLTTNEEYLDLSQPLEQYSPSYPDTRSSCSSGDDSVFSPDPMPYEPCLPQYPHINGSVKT

IC50, 100 to 1000 nM:
C=CC(=O)N1C[C@@H](n2nc(C#Cc3ccn4ncnc4c3)c3c(N)ncnc32)C[C@@H]1COC [Example 114, 1-[(2R,4S)-4-[4-Amino-3-(2-[[1,2,4]triazolo[1,5-a]pyridin-7-yl]ethynyl)pyrazolo[3,4-d]pyrimidin-1-yl]-2-(methoxymethyl)pyrrolidin-1-yl]prop-2-en-1-one]

IC50, ≤ 100 nM:
C=CC(=O)N1C[C@@H](n2nc(C#Cc3cc4ncn(C5CC5)c4cc3F)c3c(N)ncnc32)C[C@@H]1COC [Example 108, 1-[(2R,4S)-4-[4-Amino-3-[2-(1-cyclopropyl-6-fluoro-1,3-benzodiazol-5-yl)ethynyl]pyrazolo[3,4-d]pyrimidin-1-yl]-2-(methoxymethyl)pyrrolidin-1-yl]prop-2-en-1-one]
C=CC(=O)N1C[C@@H](n2nc(C#Cc3cc4ncn(C5CC5)c4cc3F)c3c(N)nccc32)C[C@@H]1COC [Example 109, 1-[(2R,4S)-4-[4-Amino-3-[2-(1-cyclopropyl-6-fluoro-1,3-benzodiazol-5-yl)ethynyl]pyrazolo[4,3-c]pyridin-1-yl]-2-(methoxymethyl)pyrrolidin-1-yl]prop-2-en-1-one]
C=CC(=O)N1C[C@@H](n2cc(C#Cc3cc4ncn(C5CC5)c4cc3F)c3c(N)ncnc32)C[C@@H]1COC [Example 110, 1-[(2R,4S)-4-[4-Amino-5-[2-(1-cyclopropyl-6-fluoro-1,3-benzodiazol-5-yl)ethynyl]pyrrolo[2,3-d]pyrimidin-7-yl]-2-(methoxymethyl)pyrrolidin-1-yl]prop-2-en-1-one]
C=CC(=O)N1C[C@@H](n2nc(C#Cc3ccc4scnc4c3)c3c(N)ncnc32)C[C@@H]1COC [Example 112, 1-((2R,4S)-4-(4-Amino-3-(benzo[d]thiazol-5-ylethynyl)-1H-pyrazolo[3,4-d]pyrimidin-1-yl)-2-(methoxymethyl)pyrrolidin-1-yl)prop-2-en-1-one]
C=CC(=O)N1C[C@@H](n2cc(C#Cc3c(Cl)cc4c(nc(C)n4C)c3F)c3c(N)ncnc32)C[C@@H]1COC [Example 113, 1-((2R,4S)-4-(4-Amino-5-((6-chloro-4-fluoro-1,2-dimethyl-1H-benzo[d]imidazol-5-yl)ethynyl)-7H-pyrrolo[2,3-d]pyrimidin-7-yl)-2-(methoxymethyl)pyrrolidin-1-yl)prop-2-en-1-one]
C=CC(=O)N1C[C@@H](n2nc(C#Cc3ccc4ocnc4c3)c3c(N)ncnc32)C[C@@H]1COC [Example 115, 1-[(2R,4S)-4-[4-Amino-3-[2-(1,3-benzoxazol-5-yl)ethynyl]pyrazolo[3,4-d]pyrimidin-1-yl]-2-(methoxymethyl)pyrrolidin-1-yl]prop-2-en-1-one]
C=CC(=O)N1C[C@@H](n2nc(C#Cc3c(Cl)cc4c(ncn4CC)c3F)c3c(N)ncnc32)C[C@@H]1COC [Example 116, 1-[(2R,4S)-4-[4-Amino-3-[2-(6-chloro-1-ethyl-4-fluoro-1,3-benzodiazol-5-yl)ethynyl]pyrazolo [3,4-d]pyrimidin-1-yl]-2-(methoxymethyl)pyrrolidin-1-yl]prop-2-en-1-one]
C=CC(=O)N1C[C@@H](n2nc(C#Cc3c(Cl)cc4c(ncn4CC)c3F)c3c(N)nccc32)C[C@@H]1COC [Example 117, 1-[(2R,4S)-4-[4-Amino-3-[2-(6-chloro-1-ethyl-4-fluoro-1,3-benzodiazol-5-yl)ethynyl]pyrazolo[4,3-c]pyridin-1-yl]-2-(methoxymethyl)pyrrolidin-1-yl]prop-2-en-1-one]
C=CC(=O)N1C[C@@H](n2cc(C#Cc3c(Cl)cc4c(ncn4CC)c3F)c3c(N)ncnc32)C[C@@H]1COC [Example 118, 1-1-[(2R,4S)-4-[4-Amino-5-[2-(6-chloro-1-ethyl-4-fluoro-1,3-benzodiazol-5-yl)ethynyl]pyrrolo[2,3-d]pyrimidin-7-yl]-2-(methoxymethyl)pyrrolidin-1-yl]prop-2-en-1-one]
C=CC(=O)N1C[C@@H](n2nc(C#Cc3cc4ncoc4cc3F)c3c(N)ncnc32)C[C@@H]1COC [Example 119, 1-[(2R,4S)-4-[4-Amino-3-[2-(6-fluoro-1,3-benzoxazol-5-yl)ethynyl]pyrazolo[3,4-d]pyrimidin-1-yl]-2-(methoxymethyl)pyrrolidin-1-yl]prop-2-en-1-one]
C=CC(=O)N1C[C@@H](n2nc(C#Cc3cc4ncn(C)c4c(F)c3F)c3c(N)ncnc32)C[C@@H]1COC [Example 120, 1-((2R,4S)-4-(4-Amino-3-((6,7-difluoro-1-methyl-1H-benzo[d]imidazol-5-yl)ethynyl)-1H-pyrazolo[3,4-d]pyrimidin-1-yl)-2-(methoxymethyl)pyrrolidin-1-yl)prop-2-en-1-one]
C=CC(=O)N1C[C@@H](n2nc(C#Cc3cc4ncn(C)c4c(F)c3Cl)c3c(N)ncnc32)C[C@@H]1COC [Example 121, 1-[(2R,4S)-4-[4-Amino-3-[2-(6-chloro-7-fluoro-1-methyl-1,3-benzodiazol-5-yl)ethynyl]pyrazolo[3,4-d]pyrimidin-1-yl]-2-(methoxymethyl)pyrrolidin-1-yl]prop-2-en-1-one]
C=CC(=O)N1C[C@@H](n2nc(C#Cc3cc4nc(C)n(C)c4c(F)c3F)c3c(N)ncnc32)C[C@@H]1COC [Example 122, 1-[(2R,4S)-4-[4-Amino-3-[2-(6,7-difluoro-1,2-dimethyl-1,3-benzodiazol-5-yl)ethynyl]pyrazolo[3,4-d]pyrimidin-1-yl]-2-(methoxymethyl)pyrrolidin-1-yl]prop-2-en-1-one]
C=CC(=O)N1C[C@@H](n2nc(C#Cc3cc4ncn(CC)c4c(F)c3F)c3c(N)ncnc32)C[C@@H]1COC [Example 123, 1-[(2R,4S)-4-[4-Amino-3-[2-(1-ethyl-6,7-difluoro-1,3-benzodiazol-5-yl)ethynyl]pyrazolo[3,4-d]pyrimidin-1-yl]-2-(methoxymethyl)pyrrolidin-1-yl]prop-2-en-1-one]
C=CC(=O)N1C[C@@H](n2nc(C#Cc3cc4nccn4cc3F)c3c(N)ncnc32)C[C@@H]1COC [Example 124, 1-((2R,4S)-4-(4-Amino-3-((6-fluoroimidazo[1,2-a]pyridin-7-yl)ethynyl)-1H-pyrazolo[3,4-d]pyrimidin-1-yl)-2-(methoxymethyl)pyrrolidin-1-yl)prop-2-en-1-one]
C=CC(=O)N1C[C@@H](n2nc(C#Cc3cc4nc(C)n(C)c4c(F)c3Cl)c3c(N)ncnc32)C[C@@H]1COC [Example 125, 1-[(2R,4S)-4-[4-Amino-3-[2-(6-chloro-7-fluoro-1,2-dimethyl-1,3-benzodiazol-5-yl)ethynyl]pyrazolo[3,4-d]pyrimidin-1-yl]-2-(methoxymethyl)pyrrolidin-1-yl]prop-2-en-1-one]
C=CC(=O)N1C[C@@H](n2nc(C#Cc3cc4ncn(C5CC5)c4cc3Cl)c3c(N)ncnc32)C[C@@H]1COC [Example 126, 1-[(2R,4S)-4-[4-Amino-3-[2-(6-chloro-1-cyclopropyl-1,3-benzodiazol-5-yl)ethynyl]pyrazolo[3,4-d]pyrimidin-1-yl]-2-(methoxymethyl)pyrrolidin-1-yl]prop-2-en-1-one]
C=CC(=O)N1C[C@@H](n2cc(C#Cc3cc4ncn(C5CC5)c4cc3Cl)c3c(N)ncnc32)C[C@@H]1COC [Example 127, 1-[(2R,4S)-4-[4-Amino-5-[2-(6-chloro-1-cyclopropyl-1,3-benzodiazol-5-yl)ethynyl]pyrrolo[2,3-d]pyrimidin-7-yl]-2-(methoxymethyl)pyrrolidin-1-yl] prop-2-en-1-one]
C=CC(=O)N1C[C@@H](n2nc(C#Cc3cc4ncn(CC)c4c(F)c3Cl)c3c(N)ncnc32)C[C@@H]1COC [Example 128, 1-[(2R,4S)-4-[4-amino-3-[2-(6-chloro-1-ethyl-7-fluoro-1,3-benzodiazol-5-yl)ethynyl]pyrazolo[3,4-d]pyrimidin-1-yl]-2-(methoxymethyl)pyrrolidin-1-yl]prop-2-en-1-one]
C=CC(=O)N1C[C@@H](n2nc(C#Cc3cc4nc(C)n(C(F)F)c4cc3Cl)c3c(N)ncnc32)C[C@@H]1COC [Example 129, 1-[(2R,4S)-4-(4-Amino-3-{2-[6-chloro-1-(difluoromethyl)-2-methyl-1,3-benzodiazol-5-yl]ethynyl}pyrazolo[3,4-d]pyrimidin-1-yl)-2-(methoxymethyl)pyrrolidin-1-yl]prop-2-en-1-one]
C=CC(=O)N1C[C@@H](n2nc(C#Cc3cc4nc(C)n(C(F)F)c4cc3Cl)c3c(N)nccc32)C[C@@H]1COC [Example 130, 1-[(2R,4S)-4-(4-Amino-3-{2-[6-chloro-1-(difluoromethyl)-2-methyl-1,3-benzodiazol-5-yl]ethynyl}pyrazolo[4,3-c]pyridin-1-yl)-2-(methoxymethyl)pyrrolidin-1-yl]prop-2-en-1-one]
C=CC(=O)N1C[C@@H](n2cc(C#Cc3cc4nc(C)n(C(F)F)c4cc3Cl)c3c(N)ncnc32)C[C@@H]1COC [Example 131, 1-[(2R,4S)-4-(4-Amino-5-{2-[6-chloro-1-(difluoromethyl)-2-methyl-1,3-benzodiazol-5-yl]ethynyl}pyrrolo[2,3-d]pyrimidin-7-yl)-2-(methoxymethyl)pyrrolidin-1-yl]prop-2-en-1-one]
C=CC(=O)N1CC[C@H](n2nc(C#Cc3cc4ncn(CC)c4cc3Cl)c3c(N)ncnc32)C1 [Example 132, 1-[(3S)-3-{4-Amino-3-[2-(6-chloro-1-ethyl-1,3-benzodiazol-5-yl)ethynyl]pyrazolo[3,4-d]pyrimidin-1-yl}pyrrolidin-1-yl]prop-2-en-1-one]
C=CC(=O)N1CC[C@H](n2nc(C#Cc3cc4ncn(CC)c4cc3Cl)c3c(N)nccc32)C1 [Example 133, (S)-1-(3-(4-Amino-3-((6-chloro-1-ethyl-1H-benzo[d]imidazol-5-yl)ethynyl)-1H-pyrazolo[4,3-c]pyridin-1-yl)pyrrolidin-1-yl)prop-2-en-1-one]
